Two molecules from patent US10988465B2, “CXCR4 inhibitors and uses thereof” (X4 Pharmaceuticals, Inc., priority 2016, dated 2021) can be followed below.

Like-named read-outs stand apart in the source and are kept apart here.

Data set [1] in a line: Mouse brain uptake assay (MBUA), 3 mg/kg IV, 0-1 h, 3 time points. The class given is in vivo, male CD1 mice. Particulars: for clearance / half-life: CD1, plasma, 3 time points; for half-life: read-out: t½ (converted). Here is the method: Example 38: Pharmacokinetics and Brain Penetration Experiment to Determine Brain and Plasma Concentrations of Compounds after IV Administration to Male CD1 Mice
The study design (9 animals) consisted of administrating the drug (IV: 3 mg/kg (5 mL/kg) via tail vein injection) and collecting samples at terminal bleeding for plasma and brain at 0.083, 0.5 and 1 h. The IV dosing solution was prepared in 50 mM citrate buffer (pH 4.0) at 0.6 mg/mL. The blood collection was performed as follows: the animal was restrained manually and approximately 150 μL blood/time point was collected into a dipotassium EDTA tube via retro orbital puncture under anesthesia with isoflurane. The blood sample was put on ice and centrifuged to obtain a plasma sample (2000 g, 5 min under 4° C.) within 15 minutes. The brain collection was performed as follows: a mid-line incision was made in the animal's scalp and the skin was retracted. Using small bone cutters and rongeurs, the skull overlying the brain was removed. The brain was removed using a spatula and the brain rinsed with cold saline. The brain was placed in screw-top tubes, and the tubes were stored at −70° C. until analysis.
An aliquot of 30 μL sample was added to 150 μL MeCN containing 50 ng/mL IS (Dexamethasone). The mixture was vortexed for 5 min and centrifuged at 14,000 rpm for 5 min. An aliquot of 5 μL supernatant was injected for LC-MS/MS analysis.
An aliquot of 30 μL brain homogenate (brain:PBS=1:3, w/v) sample was added to 150 μL IS in MeCN (Dexamethasone, 50 ng/mL). The mixture was vortexed for 5 min and centrifuged at 14,000 rpm for 5 min. An aliquot of 5 μL supernatant was injected for LC-MS/MS analysis.
The sample analysis was performed on LCMS/MS-003 (API4000, triple quadruple) under the following conditions: positive ion, ESI, MRM detection using dexamethasone as internal standard. HPLC conditions: mobile phase A: H2O (0.025% formic acid (FA) with 1 mM NH4OAc); mobile phase B: MeOH (0.025% FA with 1 mM NH4OAc) on Waters X-Bridge C18 (2.1×50 mm, 2.5 μm) column at 60° C.

Data set [2] addresses T1, Jurkat cells expressing CXCR4 (Homo sapiens, UniProt P61073).
T1 construct: endogenous in cells; host or cells: Jurkat
Briefly: Chemokine (CXCL12-AF647) binding inhibition assay. Particulars: CXCL12-AF647 25 ng/mL, read-out: IC50 CXCL-12 binding Jurkat. An outline of the steps:
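Cells in HBSS, 20 mM HEPES, 0.2% BSA, pH 7.4, preincubated 15 min at room temperature with compound, then 25 ng/mL CXCL12-AF647 for 30 min. After washing and paraformaldehyde fixation, bound ligand read by flow cytometry; percent inhibition calculated from MFI relative to unlabeled and ligand-only controls.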

For data set [3], the target named is T2, CXCR-4 transfected U87 cell line (U87.CXCR4) (Homo sapiens, UniProt P61073).
T2 construct: expressed in transfected cells; host or cells: U87 (U87.CXCR4)
T2 sequence (P61073 whole entry): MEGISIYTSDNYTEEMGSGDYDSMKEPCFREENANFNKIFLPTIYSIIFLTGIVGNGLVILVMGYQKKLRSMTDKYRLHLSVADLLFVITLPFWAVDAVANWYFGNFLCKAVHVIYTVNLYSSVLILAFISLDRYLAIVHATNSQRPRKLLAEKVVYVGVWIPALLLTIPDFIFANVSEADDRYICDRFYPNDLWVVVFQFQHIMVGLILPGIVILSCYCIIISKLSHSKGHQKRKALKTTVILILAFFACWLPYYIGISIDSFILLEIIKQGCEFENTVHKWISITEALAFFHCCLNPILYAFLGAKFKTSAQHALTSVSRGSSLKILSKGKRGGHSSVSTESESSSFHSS
Briefly: Intracellular CXCL-12-induced calcium mobilization assay (FLIPR). The class given is cell-based. To be noted: U87.CXCR4 cells; CXCL-12 25-50 ng/mL; compound added 15 min before; read-out: IC50 CXCL-12 Ca^2+ flux U87.CXCR4+. An outline of the steps:
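U87 cells stably expressing human CXCR4, loaded with Fluo-2 AM (4 μM final) for 45 min at 37 °C in HBSS/20 mM HEPES/0.2% BSA, pH 7.4. Calcium flux triggered by CXCL-12 (25-50 ng/mL) was followed by FLIPR fluorescence over time at 37 °C.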
On the technique in general: Calcium flux is commonly read through the fluorescence of an indicator in the cells.

Setting [4] is: male, CD1, brain, mouse, 3 mg/kg IV, 0-1 h, read-out: AUClast (b).
The mark [5] stands for this setting: male, CD1, plasma, mouse, 3 mg/kg IV, 0-1 h, read-out: AUClast (P).

T1 sequence (P61073 whole entry): as above

In general, Kp refers to tissue or fluid exposure divided by exposure in the circulation. One may read the clearance as the rate of elimination divided by the concentration. Read a high clearance as efficient removal. A word on the IC50: it is the concentration at which inhibition is half-maximal. `CN1CCN(c2cccc3nc([C@H]4CCC[C@@H](c5ncccc5Cl)N4)[nH]c23)CC1` (racemic) [I-122]: the Kp in data set [1] (male, CD1, mouse, brain/plasma, iv, 3 mg/kg) amounted to 1.23. Moreover, the clearance in data set [1] (male, mouse, 3 mg/kg IV, 0-1 h) was 119 mL/min/kg. Besides, the half-life in data set [1] (male, mouse, 3 mg/kg IV, 0-1 h) was 24.1 min. In addition, the figures for the AUC(0-t) in data set [1] (setting [4]) and in data set [1] (setting [5]) were 418 ng·h/mL and 341 ng·h/mL, respectively. The Kp uu in data set [1] (male, CD1, unbound brain/unbound plasma, mouse, 3 mg/kg IV, 0-1 h, read-out: Kp, uu) is 0.33. Moreover, the fraction unbound in data set [1] (mouse, fraction unbound to brain proteins, read-out: Fu (b) %) is 0.035; in data set [1] (mouse, fraction unbound to plasma proteins, read-out: Fu (p) %), 0.127. For the same molecule, the IC50 in data set [2] and in data set [3] was 0.01 to 100 nM in each case.
As to `Cc1cccnc1[C@@H]1CCC[C@H](c2nc3cccc(N4CCN(C)CC4)c3[nH]2)N1C` (racemic) [I-3, 2-((2R,6S)-1-methyl-6-(3-methylpyridin-2-yl)piperidin-2-yl)-7-(4-methylpiperazin-1-yl)-1H-benzo[d]imidazole], the clearance in data set [1] (male, mouse, 3 mg/kg IV, 0-1 h) is 115 mL/min/kg. In data set [1] (male, mouse, 3 mg/kg IV, 0-1 h), the half-life is 18 min. In addition, the figures for the AUC(0-t) in data set [1] (setting [4]) and in data set [1] (setting [5]) were 180 ng·h/mL and 268 ng·h/mL, respectively. The IC50 in data set [2] and in data set [3] was 0.01 to 100 nM throughout.
